We go through ten compounds from patent US8318801B2, “Cinnamic compounds and derivatives therefrom for the inhibition of histone deacetylase” (Naturewise Biotech & Medicals Corporation, priority 2009, dated 2012).

One experiment relates to tumor cell lines. Particulars: cited from earlier work.
Experiment [1] relates to Human breast cancer MCF-7 cells. As to the kind of experiment: Cell cycle analysis by flow cytometry. The class given is cell-based. Particulars: MCF-7 cells (FIG. 10(c) to (e)). On the technique in general: Flow cytometry measures light scatter and fluorescence of single cells or particles in a stream.
In experiment [2] the test system is Human lung cancer A549 cells. In words: Cell cycle analysis by flow cytometry (propidium iodide). The class given is cell-based. The following applies: A549 cells (FIG. 10(a), (b)). As to the method:
Human lung cancer A549 cells, Human glioma Hs683 cells and Human glioblastoma 05-MG cells were seeded 1×10^6 cells in a 100-mm dish. After 24 hours of incubation in DMEM+10% BSA, Human lung cancer A549 cells were treated with NBM-HB-OS01 (2.5, 5.0, 7.5, 10.0 μg/mL) for 24 hours and were treated with NBM-C-BCX-OS01 (2.5, 5.0, 7.5 μg/mL) and NBM-C-BMX-OS01 (2.5, 5, 7.5 μg/mL) for 72 hours. Human glioblastoma 05-MG cells were treated with NBM-C-BCX-OS01 (1.0, 2.0, 4.0 μg/mL) and NBM-C-BMX-OS01 (1.0, 2.0, 4.0 μg/mL) for 72 hours. Human glioma Hs683 cells were treated with NBM-C-BCX-OS01 (1.0, 2.0, 4.0 μg/mL). For cell cycle analysis, cells were fixed in 80% ethanol for 1 hour (or overnight) at −20° C. and then incubated with 2 μg/mL RNase A for 30 minutes at 37° C. Cells were stained with propidium iodide ([…] PI) in PBS and analyzed using a Becton Dickinson flow cytometer, BD FACScan and CellQuest acquisition and analysis programs. […] Human glioma Hs683 cells were treated with NBM-C-BCX-OS01 (1.0, 2.0, 4.0 μg/mL) for 72 hours.

For another experiment, the system named is Human glioma Hs683 cells. In words: Inhibition of cancer cell growth. The class given is cell-based. Particulars: Hs683 cells, 1.0, 2.0 and 4.0 μg/mL, 72 hours (FIG. 8). As to the method: Their results were counted by a trypan blue exclusion assay (see FIG. 8(e)).
(§1) Five cancer cell lines, Rat C6 giloma cells, Human breast cancer MCF-7 cells, Human glioma Hs683 cells, Human glioblastoma 05-MG cells, and Human lung cancer A549 cells, were cultured in Dulbecco's modified Eagle's medium (DMEM; Gibco) containing 10% fetal bovine serum (FBS) and 1% penicillin/streptomycin, and were kept at 37° C. in a humidified atmosphere of 95% air and 5% CO2. Human breast cancer. MDA-MB-231 cells were cultured in L-15 medium (Gibco) containing 10% fetal bovine serum (FBS), 1% penicillin/streptomycin, and 2 mM glutamine, and were maintained at 37° C. in a humidified atmosphere of 95% air and 0% CO2. For these experiments, the cells were seeded in 6-well plates or a 60-mm dish. After 24 hours, the cells were treated with different concentrations of the various compounds. […] Human glioblastoma 05-MG cells were treated with NBM-C-BCX-OS01 (1.0, 2.0, 4.0 μg/mL) and NBM-C-BMX-OS01 (1.0, 2.0, 4.0 μg/mL) for 72 hours (see FIG. 5(e)). […] The results were counted by a trypan blue exclusion assay (see FIG. 6(b)).

Experiment [3] concerns human breast cancer MDA-MB-231 cells. As to the kind of experiment: Inhibition of cancer cell growth and change of morphology. In kind it is cell-based. The following applies: for inhibition of MDA-MB-231 cells: MDA-MB-231 cells (FIG. 9); for change of cell morphology / inhibition of cell growth: MDA-MB-231 cells; for change of cell morphology: 72 hours (FIG. 6(a)); for inhibition of cell growth: various concentrations, 72 hrs (FIG. 6(a)). As to the method:
Their results were counted by a trypan blue exclusion assay (see FIG. 9(f)).
as §1

The subject of the next experiment is Rat C6 glioma cells. The experiment is described as above. The class given is cell-based. Particulars: Rat C6 glioma cells. As to the method:
(§2) Three cancer cell lines, Rat C6 giloma cells, Human breast cancer MCF-7 cells, and Human lung cancer A549 cells, were cultured in Dulbecco's modified Eagle's medium (DMEM; Gibco) containing 10% fetal bovine serum (FBS) and 1% penicillin/streptomycin. All three cell lines were maintained at 37° C. in a humidified atmosphere of 95% air and 5% CO2. For the experiments, the cells were seeded in 6-well plates. After 24 hours, the cells were treated with different concentrations of the various compounds.
as §1

The test system of experiment [4] is acetyl-Histone H3, acetyl-Histone H4, acetyl-tubulin, p21, CTPS, Gelsolin, Hsp90, acetyl-Hsp90 in Human glioma Hs683 cells. In words: Immunoblotting of histones and HDAC associated proteins. The class given is cell-based. Particulars: Hs683 cells, 1.0, 2.0, 4.0 μg/mL. On the procedure: Human glioma Hs683 cells were seeded at 5×10^5 cells in a 60-mm dish or 1×10^6 cells in a 100-mm dish. After 24 hours, Human glioma Hs683 cells were treated with different doses of NBM-C-BCX-OS01, NBM-C-BMX-OS01 (1.0, 2.0, 4.0 μg/mL), and vorinostat (SAHA, 5 μM) for 72 hours. Lysates of Hs683 cells were prepared for the immunoblotting of acetyl-Histone H3 (Cell Signaling Technology, Inc.), acetyl-Histone H4 (Upstate), acetyl-tubulin (Sigma Chemical Co.), p21 (BD Pharmingen Technology, Inc.), CTPS (ABNOVA TAIWAN Corporation), Gelsolin (Sigma Chemical Co.), Hsp90 (Cell Signaling Technology, Inc.), acetyl-Hsp90 (ROCKLAND, Inc.) and actin (Sigma Chemical Co.). Proteins were detected by chemiluminescence (ECL, Amersham). […] SAHA was used as a positive control and β-actin as an internal control (see FIG. 7(b)).
In general terms: Immunoblotting shows a protein as a band on a membrane.

The subject of experiment [5] is Human lung cancer A549 cells. In words: Inhibition of cancer cell growth. In kind it is cell-based. Particulars: 72 hrs, NBM-C-BX-OS01 7.5, others 2.5, 5.0, 7.5 μg/mL (FIG. 5(b)). As to the method: as §2, §1
In experiment [6] the test system is Human glioblastoma 05-MG cells. As to the kind of experiment: Inhibition of cancer cell growth. Particulars: 05-MG cells, 1.0, 2.0, 4.0 μg/mL, 72 hrs (FIG. 5(e)). In kind it is cell-based. As to the method: as §1

SMILES strings stand for the structures. Entries after “also recorded” stand apart in the source; their conditions may differ.

In the case of `Cc1[nH]c2ccccc2c1CCNCc1ccc(/C=C/C(=O)NO)cc1` [LBH589], in the experiment with tumor cell lines, the “growth inhibition and regression by triggering apoptosis” value is “induces growth inhibition and regression”.

Turning to `COc1ccc(/C=C\C(=O)NO)c(OCc2ccc(Br)cc2)c1CC=C(C)C` [NBM-C-BBX-OS01, (Z)-2-(4-Bromobenzoxy)-3-prenyl-4-methoxy-N-hydroxycinamide], the “cell cycle arrest phase” value in experiment [1] is “arrested the human breast cancer MCF-7 cells on the S and G2/M phases”; in experiment [2], “arrested the human lung cancer A549 cells on the S and G2/M phases”. Besides, the “inhibition of cell growth” value in the experiment on Human glioma Hs683 cells is listed as “inhibition of cell growth”. Also, the “inhibition of MDA-MB-231 cells” value in [3] was “inhibition of human breast cancer MDA-MB-231 cells”.

Take `COc1ccc(/C=C/C(=O)Nc2ccccc2N)c(OCc2ccc(Cl)cc2)c1CC=C(C)C` [NBM-C-BCA-OS01, (E)-2-(4-Chlorobenzoxy)-3-prenyl-4-methoxy-N-(2-aminophenyl) cinamide]: the “inhibition of cell growth” value in the experiment with Rat C6 glioma cells (7.5 μg/mL, 48 hrs (FIG. 4)) is “inhibited the Rat C6 glioma cell growth”; in the experiment with Rat C6 glioma cells (7.5 μg/mL, 48 hrs (FIG. 4), listed as NBM-C-BA-OS01 (17d)), “inhibited the Rat C6 glioma cells growth”.

In the case of `COc1ccc(/C=C\C(=O)NO)c(OCc2ccc(F)cc2)c1CC=C(C)C` [NBM-C-BFX-OS01, (Z)-2-(4-Fluorobenzoxy)-3-prenyl-4-methoxy-N-hydroxycinamide], in experiment [3], the “change of cell morphology” value is “changed the morphology of the cells” and the “inhibition of cell growth” value is “inhibition of the cell growth of human breast cancer MDA-MB-231 cells was observed; also recorded: inhibited the growth”.

As to `COc1ccc(COc2c(/C=C/C(=O)Nc3ccccc3N)ccc(OC)c2CC=C(C)C)cc1` [NBM-C-BMA-OS01, (E)-2-(4-Methoxyhenzoxy)-3-prenyl-4-methoxy-N-(2-aminophenyl) cinamide], the “inhibition of cell growth” value in the experiment on Rat C6 glioma cells (7.5 μg/mL, 48 hrs (FIG. 4)) is listed as “inhibited the Rat C6 glioma cell growth”.

Turning to `COc1ccc(COc2c(/C=C\C(=O)NO)ccc(OC)c2CC=C(C)C)cc1` [NBM-C-BMX-OS01, (Z)-2-(4-Methoxyhenzoxy)-3-prenyl-4-methoxy-N-hydroxycinamide], in experiment [4] (72 hrs (FIG. 7(a))), the CTPS protein level entry is on record as “decreased in a dose-dependent manner”, the Hsp90 protein level result is listed as “decreased in a dose-dependent manner”, the “induction (increase) of acetylated Hsp90 protein” value is listed as “detected in a dose-dependent manner; also recorded: observed in a dose-dependent manner” and the “induction (increase) of gelsolin protein” value is given as “detected in a dose-dependent manner; also recorded: observed in a dose-dependent manner”. Besides, in [4] (72 hrs (FIG. 7(b))), the “expression of acetylated Histone H3” value is given as “significantly increased in a dose-dependent manner; also recorded: induced in a dose-dependent manner”, the “expression of acetylated Histone H4” value is “significantly increased in a dose-dependent manner; also recorded: induced in a dose-dependent manner”, the “expression of acetylated tubulin” value is “significantly increased in a dose-dependent manner; also recorded: induced in a dose-dependent manner” and the “expression of p21” value was “significantly increased in a dose-dependent manner; also recorded: induced in a dose-dependent manner”. Besides, in experiment [5], the cell growth inhibition result is reported as “induced A549 cells growth inhibition in a dose-dependent manner; also recorded: induced A549 cell growth inhibition in dose-dependent amounts”. For the same compound, the “inhibition of cell growth” value in the experiment with Rat C6 glioma cells (24 hrs, NBM-C-BA-OS01 5 μg/mL, others 2.5, 5.0 μg/mL (FIG. 5(a))) was “inhibited the cell growth”. The “inhibition of cell growth, similar to dose-dependent A549 result” value in the experiment on Rat C6 glioma cells (various concentrations, 24 hrs (FIG. 5(c))) is “the results were similar”. The cell growth inhibition result in experiment [6] was “Cell growth inhibition was observed”. Moreover, in experiment [3], the “change of cell morphology” value was “changed the morphology of the cells” and the “inhibition of cell growth” value is listed as “inhibition of the cell growth of human breast cancer MDA-MB-231 cells was observed; also recorded: inhibited the growth”.

For `CC(C)=CCOc1c(OCc2ccc(Cl)cc2)c(/C=C\C(=O)NO)cc2ccoc12` [NBM-I-BCX-OS01], the “cell cycle arrest phase” value was “arrested the human breast cancer MCF-7 cells on the S and G2/M phases” in [1]; “arrested the human lung cancer A549 cells on the S and G2/M phases” in [2]. For the same compound, the “inhibition of cell growth” value in the experiment on Human glioma Hs683 cells is recorded as “inhibition of cell growth”. Moreover, the “inhibition of MDA-MB-231 cells” value in experiment [3] is “inhibition of human breast cancer MDA-MB-231 cells”.

Turning to `COc1ccc(/C=C/C(=O)NO)c(OCc2ccc(Br)cc2)c1CC=C(C)C` [NBM-T-BBX-OS01, (E)-2-(4-Bromobenzoxy)-3-prenyl-4-methoxy-N-hydroxy cinamide], the “cell cycle arrest phase” value in [1] was “arrested the human breast cancer MCF-7 cells on the S and G2/M phases”; in experiment [2] it was “arrested the human lung cancer A549 cells on the S and G2/M phases”. Also, the “inhibition of cell growth” value with Human glioma Hs683 cells is reported as “inhibition of cell growth”. Also, the “inhibition of MDA-MB-231 cells” value in experiment [3] is given as “inhibition of human breast cancer MDA-MB-231 cells”.

For the compound `COc1ccc(/C=C/C(=O)NO)c(OCc2ccc(Cl)cc2)c1CC=C(C)C` [NBM-T-BCX-OS01, (E)-2-(4-Chlorobenzoxy)-3-prenyl-4-methoxy-N-hydroxy cinamide], the “cell cycle arrest phase” value in experiment [1] was “arrested the human breast cancer MCF-7 cells on the S and G2/M phases”. Also, the “inhibition of cell growth” value in the experiment with Human glioma Hs683 cells was “inhibition of cell growth”. The “inhibition of MDA-MB-231 cells” value in experiment [3] is given as “inhibition of human breast cancer MDA-MB-231 cells”.

Turning to `COc1ccc(COc2c(/C=C/C(=O)NO)ccc(OC)c2CC=C(C)C)cc1` [NBM-T-BMX-OS01, (E)-2-(4-Methoxyhenzoxy)-3-prenyl-4-methoxy-N-hydroxy cinamide], the “cell cycle arrest phase” value is “arrested the human breast cancer MCF-7 cells on the S and G2/M phases” in [1]; “arrested the human lung cancer A549 cells on the S and G2/M phases” in experiment [2]. In addition, the “inhibition of cell growth” value in the experiment on Human glioma Hs683 cells is given as “inhibition of cell growth”. For the same compound, the “inhibition of MDA-MB-231 cells” value in experiment [3] is listed as “inhibition of human breast cancer MDA-MB-231 cells”.
